Results: ChEMBL document CHEMBL1154040, “Synthesis and evaluation of novel F-18 labeled fluoroarylvaline derivatives: potential PET imaging agents for tumor detection” (Bioorg Med Chem Lett, 2009)

How the values were obtained:
[1] = Ratio of drug level in S180 tumor to blood in KM mouse at 240 to 370 kBq, iv after 120 mins; format: ADME, organism-based; details: tumour, 2 h
Brain [2] = experiment: Biodistribution in S180 tumor-bearing KM mouse brain assessed per gram of tissue at 240 to 370 kBq, iv after 60 mins; format: ADME, organism-based; details: in vivo, 1 h
Heart [3] = experiment: Biodistribution in S180 tumor-bearing KM mouse heart assessed per gram of tissue weight at 240 to 370 kBq, iv after 60 mins; format: ADME, organism-based; details: in vivo, 1 h
Lung [4] = experiment: Biodistribution in S180 tumor-bearing KM mouse lung assessed per gram of tissue at 240 to 370 kBq, iv after 120 mins; format: ADME, organism-based; details: in vivo, 2 h
Liver [5] = experiment: Biodistribution in S180 tumor-bearing KM mouse liver assessed per gram of tissue weight at 240 to 370 kBq, iv after 5 mins; format: ADME, organism-based; details: in vivo
Lung [6] = experiment: Biodistribution in S180 tumor-bearing KM mouse lung assessed per gram of tissue at 240 to 370 kBq, iv after 15 mins; format: ADME, organism-based; details: in vivo, 0.25 h
Blood [7] = experiment: Biodistribution in S180 tumor-bearing KM mouse blood assessed per gram of tissue weight at 240 to 370 kBq, iv after 60 mins; format: ADME, organism-based; details: in vivo, 1 h
Muscle tissue [8] = experiment: Biodistribution in S180 tumor-bearing KM mouse muscle assessed per gram of tissue at 240 to 370 kBq, iv after 5 mins; format: ADME, organism-based; details: in vivo
[9] = Ratio of drug level in S180 tumor to brain KM mouse at 240 to 370 kBq, iv after 5 mins; format: ADME, organism-based; details: in vivo
Brain [10] = experiment: Biodistribution in S180 tumor-bearing KM mouse brain assessed per gram of tissue at 240 to 370 kBq, iv after 30 mins; format: ADME, organism-based; details: in vivo, 0.5 h
Blood [11] = experiment: Biodistribution in S180 tumor-bearing KM mouse blood assessed per gram of tissue weight at 240 to 370 kBq, iv after 30 mins; format: ADME, organism-based; details: in vivo, 0.5 h
Muscle tissue [12] = experiment: Biodistribution in S180 tumor-bearing KM mouse muscle assessed per gram of tissue at 240 to 370 kBq, iv after 120 mins; format: ADME, organism-based; details: in vivo, 2 h
Heart [13] = experiment: Biodistribution in S180 tumor-bearing KM mouse heart assessed per gram of tissue weight at 240 to 370 kBq, iv after 15 mins; format: ADME, organism-based; details: in vivo, 0.25 h
Lung [14] = experiment: Biodistribution in S180 tumor-bearing KM mouse lung assessed per gram of tissue at 240 to 370 kBq, iv after 60 mins; format: ADME, organism-based; details: in vivo, 1 h
[15] = Biodistribution in S180 tumor present in KM mouse assessed per gram of tissue at 240 to 370 kBq, iv after 15 mins; format: ADME, organism-based, Neoplasm; details: in vivo, 0.25 h
Lung [16] = experiment: Biodistribution in S180 tumor-bearing KM mouse lung assessed per gram of tissue at 240 to 370 kBq, iv after 5 mins; format: ADME, organism-based; details: in vivo
Kidney [17] = experiment: Biodistribution in S180 tumor-bearing KM mouse kidney assessed per gram of tissue at 240 to 370 kBq, iv after 60 mins; format: ADME, organism-based; details: in vivo, 1 h
Muscle tissue [18] = experiment: Biodistribution in S180 tumor-bearing KM mouse muscle assessed per gram of tissue at 240 to 370 kBq, iv after 15 mins; format: ADME, organism-based; details: in vivo, 0.25 h
Blood [19] = experiment: Biodistribution in S180 tumor-bearing KM mouse blood assessed per gram of tissue weight at 240 to 370 kBq, iv after 120 mins; format: ADME, organism-based; details: in vivo, 2 h
[20] = Ratio of drug level in S180 tumor to muscleKM mouse at 240 to 370 kBq, iv after 120 mins; format: ADME, organism-based, KM; details: in vivo, 2 h
[21] = Ratio of drug level in S180 tumor to brain KM mouse at 240 to 370 kBq, iv after 60 mins; format: ADME, organism-based; details: in vivo, 1 h
Kidney [22] = experiment: Biodistribution in S180 tumor-bearing KM mouse kidney assessed per gram of tissue at 240 to 370 kBq, iv after 15 mins; format: ADME, organism-based; details: in vivo, 0.25 h
Heart [23] = experiment: Biodistribution in S180 tumor-bearing KM mouse heart assessed per gram of tissue weight at 240 to 370 kBq, iv after 30 mins; format: ADME, organism-based; details: in vivo, 0.5 h
Liver [24] = experiment: Biodistribution in S180 tumor-bearing KM mouse liver assessed per gram of tissue at 240 to 370 kBq, iv after 30 mins; format: ADME, organism-based; details: in vivo, 0.5 h
Brain [25] = experiment: Biodistribution in S180 tumor-bearing KM mouse brain assessed per gram of tissue at 240 to 370 kBq, iv after 120 mins; format: ADME, organism-based; details: in vivo, 2 h
Liver [26] = experiment: Biodistribution in S180 tumor-bearing KM mouse liver assessed per gram of tissue at 240 to 370 kBq, iv after 120 mins; format: ADME, organism-based; details: in vivo, 2 h
[27] = Ratio of drug level in S180 tumor to muscleKM mouse at 240 to 370 kBq, iv after 60 mins; format: ADME, organism-based, KM; details: in vivo, 1 h
[28] = Ratio of drug level in S180 tumor to muscleKM mouse at 240 to 370 kBq, iv after 5 mins; format: ADME, organism-based, KM; details: in vivo
[29] = Biodistribution in S180 tumor present in KM mouse assessed per gram of tissue at 240 to 370 kBq, iv after 120 mins; format: ADME, organism-based, Neoplasm; details: in vivo, 2 h
Muscle tissue [30] = experiment: Biodistribution in S180 tumor-bearing KM mouse muscle assessed per gram of tissue at 240 to 370 kBq, iv after 60 mins; format: ADME, organism-based; details: in vivo, 1 h
[31] = Ratio of drug level in S180 tumor to muscleKM mouse at 240 to 370 kBq, iv after 30 mins; format: ADME, organism-based, KM; details: in vivo, 0.5 h
Lung [32] = experiment: Biodistribution in S180 tumor-bearing KM mouse lung assessed per gram of tissue at 240 to 370 kBq, iv after 30 mins; format: ADME, organism-based; details: in vivo, 0.5 h
Spleen [33] = experiment: Biodistribution in S180 tumor-bearing KM mouse spleen assessed per gram of tissue at 240 to 370 kBq, iv after 120 mins; format: ADME, organism-based; details: in vivo, 2 h
[34] = Ratio of drug level in S180 tumor to blood in KM mouse at 240 to 370 kBq, iv after 5mins; format: ADME, organism-based; details: tumour
Spleen [35] = experiment: Biodistribution in S180 tumor-bearing KM mouse spleen assessed per gram of tissue at 240 to 370 kBq, iv after 30 mins; format: ADME, organism-based; details: in vivo, 0.5 h
[36] = Biodistribution in S180 tumor present in KM mouse assessed per gram of tissue at 240 to 370 kBq, iv after 5 mins; format: ADME, organism-based, Neoplasm; details: in vivo
Kidney [37] = experiment: Biodistribution in S180 tumor-bearing KM mouse kidney assessed per gram of tissue at 240 to 370 kBq, iv after 30 mins; format: ADME, organism-based; details: in vivo, 0.5 h
Spleen [38] = experiment: Biodistribution in S180 tumor-bearing KM mouse spleen assessed per gram of tissue at 240 to 370 kBq, iv after 5 mins; format: ADME, organism-based; details: in vivo
Brain [39] = experiment: Biodistribution in S180 tumor-bearing KM mouse brain assessed per gram of tissue at 240 to 370 kBq, iv after 15 mins; format: ADME, organism-based; details: in vivo, 0.25 h
Heart [40] = experiment: Biodistribution in S180 tumor-bearing KM mouse heart assessed per gram of tissue weight at 240 to 370 kBq, iv after 5 mins; format: ADME, organism-based; details: in vivo
[41] = Ratio of drug level in S180 tumor to blood in KM mouse at 240 to 370 kBq, iv after 15mins; format: ADME, organism-based; details: tumour, 0.25 h
Brain [42] = experiment: Biodistribution in S180 tumor-bearing KM mouse brain assessed per gram of tissue at 240 to 370 kBq, iv after 5 mins; format: ADME, organism-based; details: in vivo
[43] = Ratio of drug level in S180 tumor to brain KM mouse at 240 to 370 kBq, iv after 15 mins; format: ADME, organism-based; details: in vivo, 0.25 h

In the case of `COC(=O)[C@@H](NC(=O)c1ccc([N+](=O)[O-])cc1[18F])C(C)C`, the tumor/blood ratio [1] is reported as 1.67, the Drug uptake (Brain [2]) is reported as 0.17 %ID and the Drug uptake (Heart [3]) is reported as 0.19 %ID. The Drug uptake (Lung [4]) was 0.25 %ID, the Drug uptake (Liver [5]) was 15.9 %ID and the Drug uptake (Lung [6]) was 2.57 %ID. The Drug uptake (Blood [7]) was 0.28 %ID, the Drug uptake (Muscle tissue [8]) was 1.43 %ID and the tumor/brain ratio [9] was 2.79. For the same compound, the Drug uptake (Brain [10]) was 0.28 %ID, the Drug uptake (Blood [11]) was 0.68 %ID and the Drug uptake (Muscle tissue [12]) was 0.58 %ID. For the same compound, the Drug uptake (Heart [13]) was 0.6 %ID, the Drug uptake (Lung [14]) was 0.31 %ID and the Drug uptake [15] was 2.06 %ID. For the same compound, the Drug uptake (Lung [16]) was 5.49 %ID, the Drug uptake (Kidney [17]) was 0.35 %ID and the Drug uptake (Muscle tissue [18]) was 1.39 %ID. It also gave a Drug uptake (Blood [19]) of 0.19 %ID, a tumor/muscle ratio [20] of 0.54 and a tumor/brain ratio [21] of 5.61. It also gave a Drug uptake (Kidney [22]) of 11.28 %ID, a Drug uptake (Heart [23]) of 0.4 %ID and a Drug uptake (Liver [24]) of 3.66 %ID. The Drug uptake (Brain [25]) was 0.12 %ID, the Drug uptake (Liver [26]) was 0.14 %ID and the tumor/muscle ratio [27] was 1.39. For the same compound, the tumor/muscle ratio [28] was 1.94, the Drug uptake [29] was 0.31 %ID and the Drug uptake (Muscle tissue [30]) was 0.69 %ID. For the same compound, the tumor/muscle ratio [31] was 2.41, the Drug uptake (Lung [32]) was 1.31 %ID and the Drug uptake (Spleen [33]) was 0.05 %ID. The tumor/blood ratio [34] was 0.9, the Drug uptake (Spleen [35]) was 0.51 %ID and the Drug uptake [36] was 2.78 %ID. It also gave a Drug uptake (Kidney [37]) of 3.8 %ID, a Drug uptake (Spleen [38]) of 1.48 %ID and a Drug uptake (Brain [39]) of 0.6 %ID. The Drug uptake (Heart [40]) was 1.35 %ID, the tumor/blood ratio [41] was 0.94 and the Drug uptake (Brain [42]) was 0.99 %ID. For the same compound, the tumor/brain ratio [43] was 3.42.
`OC[C@H]1O[C@@H](O)[C@H]([18F])[C@@H](O)[C@@H]1O` [FLUDEOXYGLUCOSE-F18] gave a tumor/blood ratio [1] of 15.8, a Drug uptake (Brain [2]) of 2.11 %ID and a Drug uptake (Heart [3]) of 3.24 %ID. The Drug uptake (Lung [4]) was 0.52 %ID, the Drug uptake (Liver [5]) was 1.35 %ID and the Drug uptake (Lung [6]) was 0.77 %ID. The Drug uptake (Blood [7]) was 0.11 %ID, the Drug uptake (Muscle tissue [8]) was 1.56 %ID and the tumor/brain ratio [9] was 0.53. For the same compound, the Drug uptake (Brain [10]) was 3.07 %ID, the Drug uptake (Blood [11]) was 0.16 %ID and the Drug uptake (Muscle tissue [12]) was 0.78 %ID. For the same compound, the Drug uptake (Heart [13]) was 2.5 %ID, the Drug uptake (Lung [14]) was 0.57 %ID and the Drug uptake [15] was 1.56 %ID. For the same compound, the Drug uptake (Lung [16]) was 1.52 %ID, the Drug uptake (Kidney [17]) was 0.54 %ID and the Drug uptake (Muscle tissue [18]) was 1.14 %ID. It also gave a Drug uptake (Blood [19]) of 0.11 %ID, a tumor/muscle ratio [20] of 2.2 and a tumor/brain ratio [21] of 1.02. It also gave a Drug uptake (Kidney [22]) of 1.04 %ID, a Drug uptake (Heart [23]) of 2.69 %ID and a Drug uptake (Liver [24]) of 0.23 %ID. It also gave a Drug uptake (Brain [25]) of 1.28 %ID, a Drug uptake (Liver [26]) of 0.2 %ID and a tumor/muscle ratio [27] of 2.23. It also gave a tumor/muscle ratio [28] of 0.81, a Drug uptake [29] of 1.7 %ID and a Drug uptake (Muscle tissue [30]) of 0.97 %ID. For the same compound, the tumor/muscle ratio [31] was 1.75, the Drug uptake (Lung [32]) was 0.64 %ID and the Drug uptake (Spleen [33]) was 0.78 %ID. The tumor/blood ratio [34] was 1.17, the Drug uptake (Spleen [35]) was 0.9 %ID and the Drug uptake [36] was 1.27 %ID. For the same compound, the Drug uptake (Kidney [37]) was 0.61 %ID, the Drug uptake (Spleen [38]) was 1.31 %ID and the Drug uptake (Brain [39]) was 2.63 %ID. For the same compound, the Drug uptake (Heart [40]) was 2.6 %ID, the tumor/blood ratio [41] was 3.42 and the Drug uptake (Brain [42]) was 2.4 %ID. For the same compound, the tumor/brain ratio [43] was 0.59.
